# According to BindingDB's records for doi:10.3109/14756366.2012.732071 (Ondokuz Mayis University, 2013):
# How the values were obtained:
# Carbonic anhydrase 2 = Carbonic anhydrase 2 (Homo sapiens, UniProt P00918); experiment: Esterase Assay; conditions: pH 7.4; 25 °C
# Description: (§1) The enzymatic reaction, in a total volume of 3.0 mL, contained 1.4 mL 0.05 M Tris-SO4 buffer (pH 7.4), 1 mL 3 mM NPA, 0.5 mL H2O and 0.1 mL enzyme solution. A reference measurement was obtained by preparing the same cuvette without enzyme solution. All compounds were tested in triplicate at each concentration used.
# Carbonic anhydrase 1 = Carbonic anhydrase 1 (Homo sapiens, UniProt P00915); experiment: Esterase Assay; conditions: pH 7.4; 25 °C
# Sequence of Carbonic anhydrase 1 (P00915 whole entry): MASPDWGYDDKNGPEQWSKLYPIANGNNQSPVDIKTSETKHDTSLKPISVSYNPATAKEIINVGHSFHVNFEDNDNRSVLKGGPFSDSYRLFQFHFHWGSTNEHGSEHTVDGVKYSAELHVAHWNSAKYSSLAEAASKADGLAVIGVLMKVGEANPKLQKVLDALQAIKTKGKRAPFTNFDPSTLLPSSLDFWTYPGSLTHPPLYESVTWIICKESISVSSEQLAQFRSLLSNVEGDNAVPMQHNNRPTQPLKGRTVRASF
# Description: as §1
Structure (SMILES),Ki (Carbonic anhydrase 2) [nM],Ki (Carbonic anhydrase 1) [µM]
"Cc1cccc(N2C(=O)[C@H](C)S[C@H]2c2ccc(C)s2)n1 [(2S,5S)-5-methyl-3-(6-methylpyridin-2-yl)-2-(5-methylthiophen-2-yl)thiazolidin-4-one]",930,5.58
"Cc1cccc(N2C(=O)[C@@H](C)S[C@H]2c2ccc(C)s2)n1 [(2S,5R)-5-methyl-3-(6-methylpyridin-2-yl)-2-(5-methylthiophen-2-yl)thiazolidin-4-one]",810,4.43
"Cc1cccc(N2C(=O)CSC2c2sccc2C)n1 (stereo unspecified) [Thiazolidin-based CA inhibitor, 2]",2480,47.5
"Cc1cccc(N2C(=O)[C@H](C)S[C@H]2c2sccc2C)n1 [Thiazolidin-based CA inhibitor, 5a]",2290,27.5
"Cc1cccc(N2C(=O)C(C)SC2c2cccs2)n1 (stereo unspecified) [Thiazolidin-based CA inhibitor, 4]",1320,5.51
"Cc1cccc(N2C(=O)CSC2c2cccs2)n1 (stereo unspecified) [Thiazolidin-based CA inhibitor, 1]",1340,6.8
"Cc1cccc(N2C(=O)CSC2c2ccc(C)s2)n1 (stereo unspecified) [Thiazolidin-based CA inhibitor, 3]",1360,5.38
"Cc1cccc(N2C(=O)[C@@H](C)S[C@H]2c2sccc2C)n1 [Thiazolidin-based CA inhibitor, 5b]",3590,29.4
